Laboratory results as given in the supplement of paper PMC10307832.

What was measured:
Experiment in all cases: relative viability (nuclei count vs DMSO), 5 days (fraction); higher = more cells survive
[1] = compound: CC(C)CCN1c2nc(Nc3cc(F)c(O)c(F)c3)ncc2N(C)C(=O)C1C [BI-D1870] + NC(=O)Nc1cc(-c2cccc(F)c2)sc1C(=O)N[C@H]1CCCNC1 [AZD7762] (partner 0.2 µM)
How it was run: (§1)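 Lung cancer cell lines in 1536-well plates got either a single drug or a fixed anchor-drug dose together with five library-drug doses (not always all listed) in √10 steps, by pin tool, on the day after seeding. Nuclei were counted after 5 days, and relative viability is the treated-to-vehicle ratio of nuclei counts. Values are medians of duplicate plates.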

[2] = compound: CC(C)CCN1c2nc(Nc3cc(F)c(O)c(F)c3)ncc2N(C)C(=O)C1C [BI-D1870] + CCNC(=O)c1noc(-c2cc(C(C)C)c(O)cc2O)c1-c1ccc(CN2CCOCC2)cc1 [Luminespib] (partner 0.01 µM)
How it was run: as §1

[3] = compound: CC(C)CCN1c2nc(Nc3cc(F)c(O)c(F)c3)ncc2N(C)C(=O)C1C [BI-D1870] + CC(=O)c1c(C)c2cnc(Nc3ccc(N4CCNCC4)cn3)nc2n(C2CCCC2)c1=O [Palbociclib] (partner 0.5 µM)
How it was run: as §1

[4] = compound: O=c1ncccn1[C@@H]1O[C@H](CO)[C@@H](O)[C@H]1O [Zebularine] + CC(=O)c1c(C)c2cnc(Nc3ccc(N4CCNCC4)cn3)nc2n(C2CCCC2)c1=O [Palbociclib] (partner 0.5 µM)
How it was run: as §1

| Cell Line | relative viability ([1]; first compound 0.04 µM) | relative viability ([1]; first compound 0.1265 µM) | relative viability ([1]; first compound 0.4 µM) | relative viability ([1]; first compound 1.265 µM) | relative viability ([1]; first compound 4 µM) | relative viability ([2]; first compound 0.04 µM) | relative viability ([2]; first compound 0.1265 µM) | relative viability ([2]; first compound 0.4 µM) | relative viability ([2]; first compound 1.265 µM) | relative viability ([2]; first compound 4 µM) | relative viability ([3]; first compound 0.04 µM) | relative viability ([3]; first compound 0.1265 µM) | relative viability ([3]; first compound 0.4 µM) | relative viability ([3]; first compound 1.265 µM) | relative viability ([3]; first compound 4 µM) | relative viability ([4]; first compound 1 µM) | relative viability ([4]; first compound 3.162 µM) | relative viability ([4]; first compound 10 µM) | relative viability ([4]; first compound 31.62 µM) | relative viability ([4]; first compound 100 µM) |
| --- | --- | --- | --- | --- | --- | --- | --- | --- | --- | --- | --- | --- | --- | --- | --- | --- | --- | --- | --- | --- |
| 201T | 0.663 | 0.534 | 0.602 | 0.618 | 0.696 | 1.1 | 1.01 | 1.06 | 1.07 | 1.12 | 0.358 | 0.339 | 0.362 | 0.365 | 0.356 | 0.406 | 0.355 | 0.325 | 0.411 | 0.39 |
| NCI-H2126 | 1.02 | 1.02 | 0.95 | 1.05 | 0.991 | 0.899 | 0.767 | 0.866 | 0.915 | 0.769 | 0.369 | 0.4 | 0.38 | 0.33 | 0.357 | 0.363 | 0.342 | 0.386 | 0.377 | 0.318 |
| HOP-62 | 0.969 | 0.898 | 0.798 | 0.834 | 0.651 | 0.989 | 0.929 | 0.88 | 0.95 | 0.866 | 0.508 | 0.419 | 0.496 | 0.522 | 0.405 | 0.496 | 0.437 | 0.218 | 0.158 | 0.152 |
| CAL-12T | 0.749 | 0.546 | 0.637 | 0.599 | 0.668 | 0.332 | 0.211 | 0.313 | 0.419 | 0.491 | 0.593 | 0.399 | 0.34 | 0.336 | 0.203 | 0.474 | 0.423 | 0.409 | 0.557 | 0.353 |
| NCI-H1755 | 0.417 | 0.412 | 0.407 | 0.486 | 0.404 | 0.577 | 0.542 | 0.413 | 0.771 | 0.316 | 0.432 | 0.413 | 0.438 | 0.481 | 0.435 | 0.496 | 0.455 | 0.45 | 0.474 | 0.415 |
